{"source": "ChEMBL document CHEMBL5038667", "about": "“Discovery of an Amino Acid-Modified Near-Infrared Aza-BODIPY Photosensitizer as an Immune Initiator for Potent Photodynamic Therapy in Melanoma” (J Med Chem, 2022)", "key": {"[1]": {"experiment": "Phototoxicity against mouse B16-F10 cells assessed as reduction in cell viability incubated for 16 hrs followed by irradiated with 54 J/cm^2 of light dose and further incubated for 24 hrs by CCK-8 assay", "type": "toxicity, cell-based", "details": "B16-F10, light or radiation study"}, "[2]": {"system": "HeLa", "experiment": "Dark toxicity against human HeLa cells assessed as reduction in cell viability incubated for 16 hrs by CCK-8 assay", "type": "functional, cell-based"}, "[3]": {"experiment": "Phototoxicity against human HeLa cells assessed as reduction in cell viability incubated for 16 hrs followed by irradiated with 54 J/cm^2 of light dose and further incubated for 24 hrs by CCK-8 assay", "type": "toxicity, cell-based", "details": "light or radiation study"}, "[4]": {"experiment": "Drug localisation in lysosome of mouse B16-F10 cells at 5 uM incubated for 16 hrs by Lyso Tracker Green based confocal laser scanning microscopy analysis", "type": "ADME, subcellular", "details": "b16-f10, 16 h"}, "[5]": {"experiment": "Drug localisation in lysosome of human A-375 cells at 5 uM incubated for 16 hrs by Lyso Tracker Green based confocal laser scanning microscopy analysis", "type": "ADME, subcellular", "details": "a-375, 16 h"}, "[6]": {"system": "B16-F10", "experiment": "Induction of ROS generation in mouse B16-F10 cells assessed as cells with high intracellular ROS levels at 10 nM incubated for 16 hrs followed by irradiated with 54 J/cm^2 of light dose by H2DCFDA fluorescent probe based flow cytometry method (reference value: 1.96 %)", "type": "functional"}, "[7]": {"system": "B16-F10", "experiment": "Induction of ROS generation in mouse B16-F10 cells assessed as cells with high intracellular ROS levels at 20 nM incubated for 16 hrs followed by irradiated with 54 J/cm^2 of light dose by H2DCFDA fluorescent probe based flow cytometry method (reference value: 1.96 %)", "type": "functional"}, "[8]": {"system": "A-375", "experiment": "Induction of ROS generation in human A-375 cells assessed as cells with high intracellular ROS levels at 20 nM incubated for 16 hrs followed by irradiated with 54 J/cm2 light dose by H2DCFDA fluorescent probe based flow cytometry method (reference value: 2.09 %)", "type": "functional"}, "[9]": {"system": "B16-F10", "experiment": "Induction of apoptosis in mouse B16-F10 cells assessed as viable cells at 250 nM incubated for 16 hrs followed by irradiated with 54 J/cm^2 of light dose by Annexin V-FITC/PI based flow cytometric analysis (reference value: 87.45 %)", "type": "functional", "details": "B16-F10, light or radiation study, read-out: Activity"}, "[10]": {"system": "B16-F10", "experiment": "Induction of apoptosis in mouse B16-F10 cells assessed as late apoptotic cells at 50 nM incubated for 16 hrs followed by irradiated with 54 J/cm^2 light dose by Annexin V-FITC/PI based flow cytometric analysis (reference value: 2.32 %)", "type": "functional"}, "[11]": {"system": "B16-F10", "experiment": "Induction of apoptosis in mouse B16-F10 cells assessed as early apoptotic cells at 50 nM incubated for 16 hrs followed by irradiated with 54 J/cm^2 light dose by Annexin V-FITC/PI based flow cytometric analysis (reference value: 6.48 %)", "type": "functional"}, "[12]": {"system": "B16-F10", "experiment": "Induction of apoptosis in mouse B16-F10 cells assessed as early apoptotic cells at 250 nM incubated for 16 hrs followed by irradiated with 54 J/cm^2 light dose by Annexin V-FITC/PI based flow cytometric analysis (reference value: 6.48 %)", "type": "functional"}, "[13]": {"system": "B16-F10", "experiment": "Induction of apoptosis in mouse B16-F10 cells assessed as late apoptotic cells at 10 nM incubated for 16 hrs followed by irradiated with 54 J/cm^2 light dose by Annexin V-FITC/PI based flow cytometric analysis (reference value: 2.32 %)", "type": "functional"}, "[14]": {"system": "B16-F10", "experiment": "Induction of apoptosis in mouse B16-F10 cells assessed as late apoptotic cells at 250 nM incubated for 16 hrs followed by irradiated with 54 J/cm^2 light dose by Annexin V-FITC/PI based flow cytometric analysis (reference value: 2.32 %)", "type": "functional"}, "[15]": {"system": "B16-F10", "experiment": "Induction of apoptosis in mouse B16-F10 cells assessed as necrotic cells at 10 nM incubated for 16 hrs followed by irradiated with 54 J/cm^2 light dose by Annexin V-FITC/PI based flow cytometric analysis (reference value: 3.75 %)", "type": "functional"}, "[16]": {"system": "A-375", "experiment": "Induction of apoptosis in human A-375 cells assessed as total apoptotic cells at 10 nM incubated for 16 hrs followed by irradiated with 54 J/cm^2 light dose by Annexin V-FITC/PI based flow cytometric analysis (reference value: 4.79 %)", "type": "functional"}, "[17]": {"system": "B16-F10", "experiment": "Antitumor immunity against mouse B16-F10 cells assessed as surface translocation of CRT at 10 nM incubated for 16 hrs followed by irradiated with 54 J/cm^2 light dose and further incubated for 6 hrs by Alexa Fluor 488/Hoechst 33342 staining based confocal laser scanning microscopy", "type": "functional, cell-based"}, "[18]": {"system": "B16-F10", "experiment": "Antitumor immunity against mouse B16-F10 cells assessed as surface translocation of CRT at 250 nM incubated for 16 hrs followed by irradiated with 54 J/cm^2 light dose and further incubated for 6 hrs by Alexa Fluor 488/Hoechst 33342 staining based confocal laser scanning microscopy", "type": "functional, cell-based"}, "[19]": {"experiment": "Biodistribution in spleen of C57BL/6 mouse harboring mouse B16-F10 cells at 2 mg/kg, iv measured after 12 hrs by flourescence imaging assay", "type": "ADME, organism-based", "details": "in vivo"}, "[20]": {"experiment": "Biodistribution in kidneys of C57BL/6 mouse harboring mouse B16-F10 cells at 2 mg/kg, iv measured after 12 hrs by flourescence imaging assay", "type": "ADME, organism-based, Kidney", "details": "in vivo"}, "[21]": {"system": "B16-F10", "experiment": "Biodistribution in tumor of C57BL/6 mouse harboring mouse B16-F10 cells at 2 mg/kg, iv measured after 12 hrs by flourescence imaging assay", "type": "ADME, organism-based", "details": "in vivo"}, "[22]": {"system": "B16-F10", "experiment": "Antitumor activity against mouse B16-F10 cells implanted in C57BL/6 mouse assessed as tumor destruction at 2 mg/kg, iv irradiated with 60 J/cm^2 laser light measured after 14 days by hematoxylin and eosin based microscopic analysis", "type": "functional, organism-based", "details": "time 14.0 day"}, "[23]": {"system": "B16-F10", "experiment": "Photodynamic therapy in mouse B16-F10 cells implanted in C57BL/6 mouse model assessed as increase in infiltration of CD4+ T cells by APC/FITC/PE staining based flow cytometric analysis (reference value: 4.85 %)", "type": "functional"}, "[24]": {"system": "B16-F10", "experiment": "Photodynamic therapy in mouse B16-F10 cells implanted in C57BL/6 mouse model assessed as increase infiltration of CD4+ T cells measured after 3 days by immunofluorescence staining based analysis", "type": "functional, cell-based", "details": "time 3.0 day"}, "[25]": {"system": "B16-F10", "experiment": "Photodynamic therapy in mouse B16-F10 cells implanted in C57BL/6 mouse model assessed as increase infiltration of CD8+ T cells measured after 3 days by immunofluorescence staining based analysis", "type": "functional, cell-based", "details": "time 3.0 day"}}, "note": "Calls of active or inactive are those of the source. The rule behind the calls is not given here.", "data": [{"smiles": "COc1ccc(C2=[N+]3C(=Nc4c(-c5ccccc5)c5c(n4[B-]3(F)F)-c3ccc(OCC(=O)N[C@@H](CC(=O)O)C(=O)O)cc3CC5)C(c3ccccc3)=C2I)cc1", "values": [{"measurement": "IC50", "setting": "[1]", "result": 65, "unit": "nM"}, {"measurement": "IC50", "setting": "[2]", "result": "> 250", "unit": "µM"}, {"measurement": "IC50", "setting": "[3]", "result": 21, "unit": "nM"}, {"measurement": "Drug uptake", "setting": "[4]", "result": "Active"}, {"measurement": "Drug uptake", "setting": "[5]", "result": "Active"}, {"measurement": "Activity", "setting": "[6]", "result": 2.67, "unit": "%"}, {"measurement": "Activity", "setting": "[7]", "result": 6.77, "unit": "%"}, {"measurement": "Activity", "setting": "[8]", "result": 4.57, "unit": "%"}, {"measurement": "viability at 0.25 µM", "setting": "[9]", "result": 3.76, "unit": "%"}, {"measurement": "Activity", "setting": "[10]", "result": 13.7, "unit": "%"}, {"measurement": "Activity", "setting": "[11]", "result": 40.92, "unit": "%"}, {"measurement": "Activity", "setting": "[12]", "result": 75.41, "unit": "%"}, {"measurement": "Activity", "setting": "[13]", "result": 7.3, "unit": "%"}, {"measurement": "Activity", "setting": "[14]", "result": 20.54, "unit": "%"}, {"measurement": "Activity", "setting": "[15]", "result": 0.88, "unit": "%"}, {"measurement": "Activity", "setting": "[16]", "result": 6.68, "unit": "%"}, {"measurement": "Activity", "setting": "[17]", "result": "inactive"}, {"measurement": "Activity", "setting": "[18]", "result": "inactive"}, {"measurement": "Drug uptake", "setting": "[19]", "result": "Active"}, {"measurement": "Drug uptake", "setting": "[20]", "result": "Active"}, {"measurement": "Drug uptake", "setting": "[21]", "result": "Active"}, {"measurement": "Activity", "setting": "[22]", "result": "Active"}, {"measurement": "Activity", "setting": "[23]", "result": 8.11, "unit": "%"}, {"measurement": "Activity", "setting": "[24]", "result": "Active"}, {"measurement": "Activity", "setting": "[25]", "result": "Active"}]}]}
